# Experimental data taken from PMC5329164 (Cancer Science, 2017).
# Columns and labels:
# [1] = test system: UM‐UC‐14 [FGFR3_S249C]; assay: In vitro cell growth assay; assay type: cell-based; details: Homo sapiens, UMUC14, 120 h, read-out: IC50, anti-proliferative effect
# [2] = test system: adriamycin‐resistant UM‐UC‐14 cell line; assay: In vitro cell growth assay, adriamycin-resistant UM-UC-14
# [3] = cited from earlier work; for T 1/2: clinical information; for hyperphosphatemia: clinical
# [4] = test system: urothelial cancer harboring FGFR3 gene alternation; details: 25 evaluable urothelial cancer patients with FGFR3 gene alternation; cited from earlier work
# [5] = test system: RT‐112 [FGFR3‐TACC3]; assay: In vitro cell growth assay; assay type: cell-based; details: Homo sapiens, RT-112, 120 h, read-out: IC50, proliferation
# [6] = test system: tumors harboring FGFR3‐TACC3 fusion genes; details: patients with tumors harboring FGFR3-TACC3 fusion genes; cited from earlier work
# [7] = test system: c‐MYC expression in lung cancer cell lines harboring FGFR1 overexpression; details: cited from earlier work
structure (smiles),measurement,setting,value
COc1cccc2c1C(=O)c1c(O)c3c(c(O)c1C2=O)C[C@@](O)(C(=O)CO)C[C@@H]3O[C@H]1C[C@H](N)[C@H](O)[C@H](C)O1 [Adriamycin],IC50,[1],6.7 ng/mL
same,IC50,"[2]; Homo sapiens, UMUC14, 120 h, read-out: IC50, anti-proliferative effect",58 ng/mL
same,fold weaker anti-proliferative effect in resistant vs parental cell line,[2]; adriamycin-resistant UM-UC-14 vs parental UM-UC-14,8.7 folds
"CCN1CCN(c2ccc(Nc3cc(N(C)C(=O)Nc4c(Cl)c(OC)cc(OC)c4Cl)ncn3)cc2)CC1 [BGJ398, 3‐(2,6‐dichloro‐3,5‐dimethoxy‐phenyl)‐1‐{6‐[4‐(4‐ethyl‐piperazin‐1‐yl)‐phenylamino]‐pyrimidin‐4‐yl}‐1‐methyl‐urea]",T 1/2,[3],quite large
same,hyperphosphatemia,[3],commonly observed
same,overall response rate,[4],36%
Nc1ccn([C@@H]2O[C@H](CO)[C@@H](O)C2(F)F)c(=O)n1 [Gemcitabine],IC50,[5],0.95 ng/mL
COc1cc(OC)cc(N(CCNC(C)C)c2ccc3ncc(-c4cnn(C)c4)nc3c2)c1 [JNJ‐42756493],T 1/2,[3],quite large
same,hyperphosphatemia,[3],commonly observed
same,partial responses,[6],three out of four partial responses
"CCN(CC)CCCCNc1ncc2cc(-c3cc(OC)cc(OC)c3)c(NC(=O)NC(C)(C)C)nc2n1 [PD173074, 1‐tert‐butyl‐3‐[6‐(3,5‐dimethoxy‐phenyl)‐2‐(4‐diethylamino‐butylamino)‐pyrido[2,3‐d]pyrimidin‐7‐yl]‐urea]",c-MYC expression,[7],decreased
